Source: PubChem BioAssay AID1996
Values after ≈ are worked out from the molar mass of the structure shown.

conditions: buffer; pH 7.4; 200.0 µM

| Compound | solubility kinetic [µg/mL] |
| --- | --- |
| O=C(Nc1ccc(N2CCOCC2)cc1)c1ccc2ncsc2c1 | 10.1 (≈ 29.8 µM) |
| CCC1(CC)NC(=O)N(CC(=O)Nc2cccc3ccccc23)C1=O | > 50.9 |
| O=C(NC(=O)N1CCSCC1)c1c(Cl)cccc1Cl | > 47.9 |
| CC(C)N(C)CCOC(=O)C1COc2ccccc2O1.Cl (stereo not given) | > 47.4 |
| Cc1ccc(-c2c[n+]3c(n2-c2ccccc2)CCC3)cc1.[Br-] | > 53.3 |
| O=C(O)CC(NC(=O)C12CC3CC(CC(C3)C1)C2)c1cccc([N+](=O)[O-])c1 (stereo not given) | > 55.9 |
| CC(C)OC(=O)/C(=C\c1ccccc1)NC(=O)c1ccccc1 | > 46.4 |
| CC1(C)CC(=O)C=C(Nc2ccc([N+](=O)[O-])cc2)C1 | 22.8 (≈ 87.6 µM) |
| CC1CCCCN1S(=O)(=O)c1ccc([N+](=O)[O-])cc1 (stereo not given) | 22.5 (≈ 79.1 µM) |
| COc1cc2c(cc1OC)C(C)N(C(=O)c1cc3c(C)cc(C)cc3[nH]1)CC2 (stereo not given) | 4.7 (≈ 12.4 µM) |
| Cc1cc(N2CC(C)OC(C)C2)n2cc(-c3ccccc3)nc2n1 (stereo not given) | 15.4 (≈ 47.8 µM) |
| COc1ccc(-c2nc3n(c2C)Cc2ccccc2-3)cc1 | 16.3 (≈ 59 µM) |
| COc1ccc(C(=O)Nc2ccccc2C(=O)Nc2cccnc2)cc1 | 8.8 (≈ 25.3 µM) |
| COc1ccccc1C(=O)NC1CCSc2ccccc21 (stereo not given) | 31.5 (≈ 105 µM) |
| Cc1ncc(CN2CCN(C3CCCC3)C(CCO)C2)s1 (stereo not given) | 36 (≈ 116 µM) |
| CC(=O)NCCc1ccc(C(=O)COC(=O)c2ccco2)cc1 | > 47.3 |
| Cc1onc(-c2c(Cl)cccc2Cl)c1C(=O)N=S(C)(=O)c1ccccc1 (stereo not given) | 1.8 (≈ 4.4 µM) |
| Br.COc1cccc(C(=O)CSc2nccn2C)c1 | > 51.5 |
| O=S(=O)(NCCc1cccs1)c1ccc(Br)cc1 | 36.3 (≈ 105 µM) |
| CC(C)C(NC(=O)c1ccccc1F)C(=O)Nc1nccs1 (stereo not given) | 48.2 (≈ 150 µM) |

| Compound | solubility kinetic [µg/mL] |
| --- | --- |
| CC(NC(=O)COC(=O)C1CC1C)c1ccccc1 (stereo not given) | > 39.2 |
| CCOC(=O)c1cc(C(C)(C)C)n(CCCN2CCOCC2)c1C | 47.5 (≈ 141 µM) |
| Oc1cccc2ccc(/C=C/c3ccccc3Cl)nc12 | < 0.6 |
| CC(C(=O)N1CCCCCC1)N(c1ccc(Cl)cc1)S(C)(=O)=O (stereo not given) | 46.8 (≈ 130 µM) |
| O=S1(=O)C[C@@H](O)[C@@H](Nc2ccccc2)C1 | > 34.1 |
| Cc1ccccc1C(=O)OC(C)CN1CCN(C)CC1.Cl (stereo not given) | > 46.9 |
| Cc1cc2oc(=O)cc(C)c2cc1NC(=O)CCl | 39.4 (≈ 148 µM) |
| Fc1ccc(NC(=S)NCc2cccnc2)cc1 | > 39.2 |
| COc1ccc(NC(=O)C(CC(=O)O)C(C)c2ccccc2)cc1 (stereo not given) | > 49.1 |
| COc1ccc(S(=O)(=O)N2CCCCCC2)cc1NC(=O)Cc1ccc(OC)c(OC)c1 | 22.1 (≈ 47.8 µM) |
| CN(C)/C=N/S(=O)(=O)c1ccc(Cl)c(Cl)c1 | > 42.2 |
| CCOc1ccc(C(=O)O/N=C(\N)c2ccccn2)cc1 | 5.2 (≈ 18.2 µM) |
| Cc1ccc(CCC(=O)Nc2cc(Cl)ccc2Cl)o1 | 1.9 (≈ 6.37 µM) |
| Cc1cccc(N2C(=O)/C(=C/N3CCN(C(=O)c4ccco4)CC3)C(=O)NC2=S)c1 | 2.6 (≈ 6.13 µM) |
| Cc1ccc(C(=O)Nc2ccc(C(=O)N3CCCCC3C)cc2)cc1 (stereo not given) | 5.2 (≈ 15.5 µM) |
| CC(=O)c1c(C)[nH]c(C(=O)Nc2ccc(F)c(F)c2F)c1C | 1.8 (≈ 5.8 µM) |
| CC(OC(=O)c1ccc(NC(=O)CC#N)cc1)C(=O)NC(c1ccccc1)c1ccccc1 (stereo not given) | 8.5 (≈ 19.3 µM) |
| NC(=O)c1ccc(NC(=O)COC(=O)c2cc3ccccc3cc2O)cc1 | 10.1 (≈ 27.7 µM) |
| Cc1cc(SCC(=O)c2cccc([N+](=O)[O-])c2)nc(=O)[nH]1 | 24.3 (≈ 79.6 µM) |
| O=C(c1cc2cc(F)ccc2[nH]1)N1CCN(c2ccc(F)cc2)CC1 | 0.3 (≈ 0.879 µM) |

| Compound | solubility kinetic [µg/mL] |
| --- | --- |
| CN=C(Nc1cccc(S(=O)(=O)N2CCOCC2)c1)c1ccccc1 | 17.2 (≈ 47.9 µM) |
| COc1ccccc1-n1cc(-c2ccc(C)cc2)[nH]c1=S | 1 (≈ 3.37 µM) |
| Cc1cccc(C)c1NC(=O)CN(C)C(=O)C1CC1C (stereo not given) | > 41.2 |
| Cc1ccc(Cn2cc(C=O)c3ccccc32)cc1 | 11.7 (≈ 46.9 µM) |
| O=Cc1c(NCc2ccccc2Cl)c2ccccc2[nH]c1=O | 17.7 (≈ 56.6 µM) |
| N#C/C(=C/Nc1ccccc1F)S(=O)(=O)c1ccc(Cl)cc1 | 2.1 (≈ 6.24 µM) |
| Cc1ccc[n+](CC(=O)Nc2ccc(N(C)C)cc2)c1.[Cl-] | > 45.9 |
| N#Cc1ccccc1CSc1nc(N)cc(N)n1 | 36.6 (≈ 142 µM) |
| CC(C)(C)CN1CCN(Cc2cccnc2)CC1CCO (stereo not given) | > 43.7 |
| O=C(O)c1cncc(C#Cc2ccccc2)c1 | > 33.5 |
| COc1ccc(C2(C)NC(=O)NC2=O)cc1OC (stereo not given) | > 37.5 |
| CNCc1cc(Cl)cc(OC)c1OC(C)C.Cl | > 42 |
| CCOc1ccccc1NC(=O)NC1CCCCCCC1 | 0.4 (≈ 1.38 µM) |
| CCOC(=O)c1ccc(NC(=O)NCc2cccnc2)cc1 | > 44.9 |
| CC(SC1=NCCN1S(C)(=O)=O)c1ccccc1 (stereo not given) | 42.5 (≈ 149 µM) |
| Cc1ccnc(NC(=O)CNC(=O)c2ccccc2Br)c1 | 48.5 (≈ 139 µM) |
| S=c1[nH]nc(-c2cccc3ccccc23)n1-c1cccnc1 | > 45.7 |
| O=C(Nc1nc(-c2ccncc2)cs1)c1ccc(F)cc1 | < 0.2 |
| Cc1ccccc1NC(=O)CCCCC(=O)Nc1ccccc1C | 2.6 (≈ 8.01 µM) |
| CCOC(=O)c1oc2nc(CC(C)C)c3c(c2c1N)CCCC3 | 1.4 (≈ 4.42 µM) |
